From publication PMC9291756, “Pharmacokinetics of enflicoxib in dogs: Effects of prandial state and repeated administration” (Journal of Veterinary Pharmacology and Therapeutics, 2021)
Like-named read-outs stand apart in the source and are kept apart here.

Legend:
[1] = Multiple dose oral toxicokinetic (target animal safety) study; settings: for AUC / Cmax: both, Beagle, dog, plasma, po; for AUC: AUC168, group 1X; for accumulation ratio, loading dose normalised to maintenance dose: weeks 13 and 31 vs week 1, all dose levels
Description: (§1) This study was designed as a Target Animal Safety (TAS) study, to assess the effects of repeated oral administrations of enflicoxib at either the recommended dose (1X), three times the dose (3X) or five times the dose (5X), that were compared to an untreated group (placebo, 0X) and followed the internationally agreed TAS guideline (VICH GL[43], [2008]). Blood samples were taken during the study to assess the dose‐exposure proportionality after single and repeated dose administrations.
(§2) Thirty‐two male and female healthy Beagle dogs, 8–10 months old and experimentally naïve, were obtained from a laboratory animal supplier. All animals were acclimatised for 28 days before study initiation. All dogs were housed in pairs of the same sex and dose group in indoor pens under temperature and humidity‐controlled conditions (15 to 24°C, 40–70% RH). Artificial lighting was provided for approximately 12 h per day. […] For each group, periods of exercise and socialisation were permitted daily. Animals were fed daily with 400 g of a certified commercial pelleted diet.
(§3) Dogs were stratified by sex and weight, (16 males weighing 6.7–9.9 kg and 16 females weighing 5.3–7.0 kg) and allocated to four groups (0X, 1X, 3X and 5X) using a pseudo‐random body weight stratification procedure, which yielded groups of four dogs of each sex with approximately equal mean body weight. Dogs were distributed in a block of several adjacent pens and identified by a microchip inserted shortly after arrival.
(§4) Enflicoxib was supplied as commercial Daxocox® tablets containing 15, 30, 45, 70 or 100 mg of enflicoxib (Ecuphar/Animalcare). The number and size of the tablets administered orally were calculated weekly based on the most recent body weights and the target dose level required. Tablets were administered once weekly, for a total of 13 weeks (5X group) or 32 weeks (0X, 1X and 3X groups). Tablets administration was followed by 10–20 ml tap water to facilitate passage of drug to the stomach.
(§5) Blood samples were collected as described for the determination of blood concentrations of enflicoxib and its pyrazol metabolite. The sampling schedule was at 6 h (on week 1 only), 24, 48, 72, 96, 120, 144 and 168 h post dose in weeks 1, 13 and 31, Additionally, weekly samples were taken prior to each dose throughout the study. Plasma was obtained and stored as described before.
(§6) The AUCt and AUCinf values were calculated with linear trapezoidal rule, and the extrapolation of AUCt to obtain AUCinf was performed using the observed concentration at the last time point. Due to the limited time between doses, the terminal rate constants (λz), and corresponding terminal half‐lives (t1/2), were calculated only for the parent compound. […] The accumulation ratios, based on AUC168 values of both compounds, were calculated at weeks 13 (last experimental week for the 5X group) and 31 (last experimental week for the other groups).
(§7) For the repeated oral dose study, analyses of variance were performed for week 1 and week 13 data separately, including all three dose levels to assess dose proportionality. For weeks 13 and 31, the analysis was done for the low and mid dose levels only, adjusted to 1 mg/kg. The factors in these analyses were dose group, time, sex and their interactions. Animal was included as a blocking factor since the same animals were bled on each sampling day. The data were logarithmically transformed prior to its analysis using SAS 9.4 (SAS Institute (2002) SAS OnlineDoc® Version Nine. SAS Institute Inc.).

[2] = set-up: method as in Ecuphar/Animalcare internal data; settings: ref Ecuphar/Animalcare internal data; cited from earlier work
[3] = Single oral dose pharmacokinetic study, fed or fasted; settings: for bioavailability / half-life / Tmax: both, Beagle, dog, plasma; for bioavailability: F% (absolute oral bioavailability); for Tmax: single oral 8 mg/kg enflicoxib, median [min-max]
Description: (§8) Thirty healthy Beagle dogs (males and females) of 1–5 years old at the time of dosing, and bodyweight between 7.4 and 12.3 kg, were housed indoors in climate‐controlled facilities in accordance with accepted laboratory animal care and use guidelines. As the animals belonged to the same centre, they were acclimatised for 5 days before study initiation.
(§9) Dogs were offered approximately 400 g of pelleted canine feed once daily. Fresh potable water was offered ad libitum. All dogs, except those in the Oral‐Fed group, were fasted overnight before dosing and food was offered after the 4‐h blood collection. Dogs in the Oral‐Fed group were supplied with 50% of their daily food ration approximately 1 h before administration, and the remainder of the food was given after the first 15‐min blood collection period post administration.
(§10) The oral groups received a single oral nominal dose of 8 mg/kg of enflicoxib (Daxocox® tablets for dogs, Ecuphar/Animalcare) in its final formulation and were followed for 126 days. The dog’s mouth was opened, the dose placed towards the back of the tongue, and 5 ml of water was administered following the dose to aid in swallowing.
(§11) Blood samples (2 ml) were collected from the jugular vein in K3EDTA tubes for determination of plasma concentrations of enflicoxib and its metabolites, at the following time points:
(§12) Oral groups: Before administration (pre‐dose; Day 1 to Day 0), 15 and, 30 min, 1, 2, 4, 6, 8, 12, 24, 48 h and 3, 4, 6, 7, 10, 14, 21, 28, 42, 56, 70, 84, 98, 112, and 126 days post administration, with the aim to characterise the complete pharmacokinetic profile of the pyrazol metabolite.
(§13) Blood samples were centrifuged within 30 min after collection at 2500 g for 10 min at ca. +5 °C. The resultant plasma was divided into 2 aliquots and frozen at ca. −20°C until analysis.
(§14) Plasma concentrations of enflicoxib and its metabolites were measured by two HPLC methods coupled with MS/MS detection (MRM) in negative ion electrospray mode.
(§15) Method for enflicoxib and its pyrazol metabolite in plasma involved its extraction from 100 µL samples by solid phase extraction (Oasis MCX 30 μm 96‐well plates, 10 mg; Waters) and separated by reverse‐phase liquid chromatography on a Luna PFP (2) column (3 μm, 50 × 4.6 mm; Phenomenex), in gradient mode elution using 0.1% FA in water and MeOH 60:40 (v/v) as mobile phase flushed a flow rate of 1 ml/min. Celecoxib was used as internal standard.
(§16) The pharmacokinetic parameters were obtained from the individual plasma concentration‐time profiles of enflicoxib or its metabolites in each animal, by non‐compartmental analysis using Phoenix® WinNonLin® software (version 8.0. Pharsight Corporation). For all calculations, values below lower limit of quantification (BLLOQ) were considered as “0” except trailing concentrations, which were excluded from calculations.

[4] = Distribution into synovial fluid after IV administration; settings: day 35 after IV 2 mg/kg enflicoxib
Description: (§17) The distribution into synovial fluid was prospectively investigated in samples corresponding to the last collection timepoint after the IV administration.
(§18) Samples of synovial fluid from the 10 dogs in the IV group were obtained under anaesthesia at 35 days post administration. Blank synovial fluid was obtained from 8 non‐dosed dogs at the same study facilities and pooled before being used for preparation of calibration curve and quality control samples for the qualification of the bioanalytical method.
(§19) Method for hydroxylated pyrazoline metabolite in plasma and for enflicoxib, pyrazol metabolite and hydroxylated pyrazoline metabolite in synovial fluid used the protein‐precipitation technique for extraction from dog samples (50 µl). The analytes were separated by reverse‐phase liquid chromatography on a Kinetex F5 100 Å column (100 × 3.0 mm; Phenomenex), in gradient mode elution using 0.1% FA in water and MeOH as mobile phase flushed a flow rate of 0.75 ml/min. Celecoxib was also used as internal standard.
(§20) For synovial fluid samples, the ratio of synovial fluid to plasma for enflicoxib and its metabolites was calculated at day 35 after IV administration.

[5] = In vitro blood to plasma partitioning; settings: female, Beagle, dog, whole blood
Method: Whole blood was obtained from 3 untreated female Beagle dogs (located in Isoquimen SL, Sant Feliu de Codines, Barcelona, Spain) and pooled into two different batches. Lithium heparin was used as anticoagulant. Blood was maintained in a rotator shaker at room temperature before use.
The derived working solutions were freshly prepared each day of experimentation.
The haematocrit (H), percent of total blood cells in whole blood samples (v/v), was determined before the assay. […] The samples were incubated separately (n = 3) at ca 37°C for 60 min under gentle agitation in a rotator shaker in polypropylene tubes. The concentration of organic solvent in the incubates was kept below 0.05% to prevent haemolysis. Reference plasma was incubated similarly in Eppendorf protein LoBind tubes as a surrogate matrix of whole blood to assess total drug concentration (Cb).
For the enflicoxib and pyrazol metabolite determination, the plasma specimens were mixed with AcN containing the internal standard celecoxib for protein precipitation (1:3 ratio plasma: solution). […] After centrifugation, the supernatants were diluted with 0.1% FA in water: AcN (90:10) and injected into the LC‐MS/MS system. […] Blank samples were processed as described before, and were used to check the selectivity and carry‐over of the LC‐MS/MS analytical runs.
The quantification of each test item in plasma was performed using calibration curves ranging from 0.05 to 20 µg/ml. […] In both cases, the LC‐MS/MS response ratios (peak area of analyte/peak area Internal Standard) were used for quantitation.
The analyte concentration obtained from LC‐MS/MS analysis in each sample was used to calculate the blood‐plasma concentration ratio (C b/C p) as follows:
C b/C p = [(concentration in reference plasma; Equivalent to concentration in whole blood) / (concentration in plasma from whole blood)].
From these values, the red blood cells (RBC) to plasma ratio (K RBC/PL) was also calculated using the following equation: KRBC/PL=1/H×Cb/Cp‐1+1 where H: haematocrit.

plasma proteins = experiment: In vitro plasma protein binding (rapid equilibrium dialysis); format: in vitro ADME; settings: pH 7.4, dog plasma, 160, 400 and 1600 ng/ml (0.4, 1, 4 µM), 37°C, mean values
Method: Equilibrium dialysis studies were performed using the Rapid Equilibrium Dialysis (RED) devices (Waters et al., [2008]) that consist of two chambers separated with a dialysis membrane with a cut‐off of 8.0 kDa (Pierce Biotechnology, ThermoFisher Scientific). The plasma protein binding was determined with blank canine plasma spiked with enflicoxib or its pyrazol metabolite. The highly bound compound tolterodine was used as a positive control. Stock solutions of the tested compounds were prepared at 10 mM concentration in DMSO and were immediately used or stored at −20 °C (±5°C) until further use.
Samples were prepared by spiking dog plasma with the compounds at three increasing concentrations (0.4 µM, 1 µM and 4 µM). Plasma samples were loaded (200 µl) in the donor chambers while the opposite chamber contained 350 µl of dialysis buffer (0.1 M phosphate buffer, pH 7.4). Dialysis was run at 37°C for 4 h with continuous shaking. […] The unbound fractions for enflicoxib or its pyrazol metabolite were determined by LC‐MS/MS using a modification of the previously described method. […]
The percent of binding to plasma proteins was calculated as: %Protein binding = (Cdonor‐Cacceptor)/Cdonor∗100. where: Cdonor = Concentration in the donor chamber after dialysis; Cacceptor = Concentration in the acceptor chamber after dialysis. […]
For each plasma sample, protein binding was determined in triplicate.

[6] = Single intravenous dose pharmacokinetic study
Method: (§21) For the IV administration, a stable 2 mg/ml enflicoxib injectable solution was prepared in a vehicle containing 20% ethanol, 8% kolliphor HS‐15 and 72% water, and sterilised using a ≤0.22‐µm syringe filter. To avoid administering an excessive volume of product, dogs in the IV group received a single dose of 2 mg/kg and were followed for 35 days. A 22‐gauge ¾” catheter was introduced into the cephalic vein, using aseptic technique. A syringe with sterile saline was used to test the patency of the vein. The calculated volume of the solution was slowly administered through the catheter over approximately 1 min. Approximately 1–2 ml of sterile saline was used to flush the catheter following drug administration.
as §11, §13, §15, §16
(§22) Additional pharmacokinetic parameters calculated for the IV treatment were plasma clearance (CL) as CL = Dose/AUCinf; volume of distribution at steady‐state (Vss) as Vss = MRTINF × CL; volume of distribution based on the terminal phase (Vz) as Vz = CL/ λz); and Mean resident time (MRT) was calculated as MRT = AUMC/AUC, with AUMC being the area under the first moment curve. For enflicoxib, C0 was calculated as the extrapolated plasma concentration at time zero after IV administration.

COX‐2 = settings: in vitro and in vivo; ref Iñiguez et al., 2010; Wagemakers et al., 2009; cited from earlier work
[7] = dog, in vivo, iv, 2 mg/kg
Method: as §21, §11, §13, §15, §16, §22

[8] = dog, in vivo, iv, 2 mg/kg; remark: listed apart in the source
Description: as §17, §18, §19, §20

[9] = dog, in vivo
Description: as §8, §9, §10, §11, §12, §13, §14, §15, §16

[10] = dog, in vivo; remark: listed apart in the source
Description: as §1, §2, §3, §4, §5, §6, §7

[11] = both, Beagle, dog, plasma, iv, 2 mg/kg

**Q.** With `NS(=O)(=O)c1ccc(N2N=C(C(F)(F)F)C[C@H]2c2ccc(F)cc2F)cc1` (racemic) [Enflicoxib, 4‐(5‐(2,4‐difluorophenyl)‐3‐(trifluoromethyl)‐4,5‐dihydro‐1H‐pyrazol‐1‐yl) benzenesulfonamide] as the compound, how does the tolerability ([1]; all three dose levels (1X, 3X, 5X), weekly oral, all dogs) read?
**A.** The tolerability was “well tolerated”.

**Q.** And the AUC ([1]; 4 mg/kg, week 13, mean ± SD)?
**A.** Its AUC is 47600 ng·h/mL.

**Q.** What about the AUC ([1]; 4 mg/kg, week 31, mean ± SD) of the same compound?
**A.** The AUC was 64000 ng·h/mL.

**Q.** What about the Cmax ([1]; 4 mg/kg, group 1X (8 + 4 mg/kg weekly oral), week 1, mean ± SD, n=8) of the same compound?
**A.** The Cmax was 2020 ± 461 ng/mL.

**Q.** What about the Cmax ([1]; 4 mg/kg, group 1X, week 13, mean ± SD) of the same compound?
**A.** The Cmax was 878 ± 319 ng/mL.

**Q.** And the Cmax ([1]; 4 mg/kg, group 1X, week 31, mean ± SD)?
**A.** The Cmax was 1450 ± 374 ng/mL.

**Q.** What about the AUC ([1]; 8 mg/kg, week 1, mean ± SD) of the same compound?
**A.** Its AUC is 87900 ng·h/mL.

**Q.** And the Cmax ([1]; 12 mg/kg, group 3X, week 13, mean ± SD)?
**A.** The Cmax was 2760 ± 817 ng/mL.

**Q.** What about the Cmax ([1]; 12 mg/kg, group 3X, week 31, mean ± SD) of the same compound?
**A.** Its Cmax is 3380 ± 1120 ng/mL.

**Q.** And the Cmax ([1]; 20 mg/kg, group 5X (40 + 20 mg/kg), week 1, mean ± SD)?
**A.** Its Cmax is 9590 ± 2040 ng/mL.

**Q.** And the Cmax ([1]; 20 mg/kg, group 5X, week 13, mean ± SD)?
**A.** Its Cmax is 4390 ± 1050 ng/mL.

**Q.** And the Cmax ([1]; 24 mg/kg, group 3X (12 + 24 mg/kg as printed), week 1, mean ± SD)?
**A.** Its Cmax is 6050 ± 1390 ng/mL.

**Q.** And the Normalised accumulation ratio ([1]; group 1X, week 13 vs week 1, based on AUC168)?
**A.** Its Normalised accumulation ratio is 0.93.

**Q.** And the Normalised accumulation ratio ([1]; group 1X, week 31 vs week 1)?
**A.** Its Normalised accumulation ratio is 1.05.

**Q.** What about the Normalised accumulation ratio ([1]; group 3X, week 13 vs week 1) of the same compound?
**A.** Its Normalised accumulation ratio is 0.9.

**Q.** What about the Normalised accumulation ratio ([1]; group 3X, week 31 vs week 1) of the same compound?
**A.** The Normalised accumulation ratio was 1.15.

**Q.** And the Normalised accumulation ratio ([1]; group 5X, week 13 vs week 1)?
**A.** The Normalised accumulation ratio was 1.

**Q.** What about the “time of Cmax” value ([1]; week 1 after loading dose, all groups, 6 h = first sampling time) of the same compound?
**A.** The value was 6 h.

**Q.** What about the “pre‐dose plasma concentration” value ([1]; week 13, all groups) of the same compound?
**A.** The value was “below 100 ng/ml”.

**Q.** What about the “correlation coefficient, adjusted PK parameters (Cmax, AUC168) vs dose level” value ([1]; weeks 1 and 13, actual doses, linear regression) of the same compound?
**A.** Its value is “higher than 0.8”.

**Q.** And the “accumulation ratio, loading dose normalised to maintenance dose” value [1]?
**A.** Its value is roughly 1.

**Q.** And the “accumulation ratio, loading dose normalised to maintenance dose” value ([1]; listed as parent compound)?
**A.** Its value is “less than 1”.

**Q.** What about the “accumulation ratio based on AUC168 (not normalised)” value ([1]; weeks 13 and 31 vs week 1, all three dose levels) of the same compound?
**A.** The value was “approximately 0.5”.

**Q.** And the solubility in water [2]?
**A.** The solubility in water was “practically insoluble”.

**Q.** And the bioavailability ([3]; oral, 8 mg/kg, oral 8 mg/kg fasted vs IV 2 mg/kg)?
**A.** Its bioavailability is 44%.

**Q.** What about the bioavailability ([3]; oral, 8 mg/kg, oral 8 mg/kg fed vs IV 2 mg/kg) of the same compound?
**A.** Its bioavailability is 63%.

**Q.** And the half-life ([3]; other: IV or oral, whatever the feeding condition, terminal elimination half‐life (t1/2), all routes of administration (IV or oral, whatever the feeding condition))?
**A.** Its half-life is 20 h.

**Q.** What about the bioavailability ([3]; po, 8 mg/kg, oral 8 mg/kg fed vs IV 2 mg/kg) of the same compound?
**A.** The bioavailability was 63.4%.

**Q.** What about the Tmax ([3]; po, 8 mg/kg, fasted) of the same compound?
**A.** Its Tmax is 4 h.

**Q.** And the Tmax ([3]; po, 8 mg/kg, fed)?
**A.** Its Tmax is 2 h.

**Q.** What about the half-life ([3]; po, 8 mg/kg, t1/2, single oral 8 mg/kg enflicoxib, fasted, harmonic mean) of the same compound?
**A.** Its half-life is 18.3 h.

**Q.** What about the half-life ([3]; po, 8 mg/kg, t1/2, single oral 8 mg/kg enflicoxib, fed, harmonic mean) of the same compound?
**A.** The half-life was 19.7 h.

**Q.** And the “F% (absolute oral bioavailability)” value ([3]; oral 8 mg/kg fasted vs IV 2 mg/kg)?
**A.** The value was 44.1%.

**Q.** And the “increase of extent of absorption and plasma exposure by food” value ([3]; oral 8 mg/kg, fed vs fasted)?
**A.** The value was 43%.

**Q.** What about the “Frel% (relative oral bioavailability)” value ([3]; oral fed vs oral fasted, 8 mg/kg) of the same compound?
**A.** Its value is 143.3%.

**Q.** What about the synovial fluid concentration [4] of the same compound?
**A.** The synovial fluid concentration was “BLLOQ”.

**Q.** And the blood plasma ratio at 60 min, 1 µg/ml [5]?
**A.** The blood plasma ratio at 60 min, 1 µg/ml was 1.07.

**Q.** What about the blood plasma ratio at 60 min, 5 µg/ml [5] of the same compound?
**A.** Its blood plasma ratio at 60 min, 5 µg/ml is 0.66.

**Q.** And the blood plasma ratio at 60 min, 15 µg/ml [5]?
**A.** Its blood plasma ratio at 60 min, 15 µg/ml is 0.66.

**Q.** And the fraction unbound at 4 h (plasma proteins)?
**A.** The fraction unbound at 4 h was 0.0099 to 0.0262.

**Q.** And the t1/2 ([6]; IV 2 mg/kg enflicoxib, harmonic mean [min-max], pyrazol metabolite n=4)?
**A.** Its t1/2 is 19.77 [11.2–29.7] h.

**Q.** What about the Vd [6, 11] of the same compound?
**A.** The Vd was 4 L/kg.

**Q.** And the clearance [6, 11]?
**A.** Its clearance is 2.33 mL/min/kg.

**Q.** What about the half-life ([6]; both, Beagle, dog, plasma, iv, 2 mg/kg, t1/2, IV 2 mg/kg enflicoxib, harmonic mean [min-max], pyrazol metabolite n=4) of the same compound?
**A.** The half-life was 20 h.

**Q.** And the “inhibition of COX‐2 enzymatic activity” value (COX‐2)?
**A.** The value was “potent inhibitors”.

**Q.** For `NS(=O)(=O)c1ccc(-n2nc(C(F)(F)F)cc2-c2ccc(F)cc2F)cc1` [Pyrazol metabolite], which AUClast [7] is on record?
**A.** Its AUClast is 1,56,500 ± 39,810 (25.4) ng·h/ml.

**Q.** And the Cmax [7]?
**A.** The Cmax was 384.5 ± 123.8 (32.2) ng/ml.

**Q.** What about the MRTlast [7] of the same compound?
**A.** Its MRTlast is 329.5 ± 27.46 (8.3) h.

**Q.** What about the Tmax [7] of the same compound?
**A.** Its Tmax is 96 [48–96] h.

**Q.** And the “ratio synovial fluid versus plasma” value [8]?
**A.** Its value is 0.031-0.078.

**Q.** And the “F% (absolute oral bioavailability)” value [9]?
**A.** Its value is 49.3%.

**Q.** What about the “mean terminal elimination half‐life (t½)” value [9] of the same compound?
**A.** The value was 408 h.

**Q.** And the “terminal elimination half‐life (t1/2)” value [9]?
**A.** Its value is 336 to 406 h.

**Q.** What about the AUCinf ([9]; po, 8 mg/kg) of the same compound?
**A.** Its AUCinf is 4,22,700 ± 2,54,500 (60.2) ng·h/ml.

**Q.** What about the AUClast ([9]; po, 8 mg/kg) of the same compound?
**A.** The AUClast was 3,91,500 ± 2,55,100 (65.2) ng·h/ml.

**Q.** What about the Cmax ([9]; po, 8 mg/kg) of the same compound?
**A.** Its Cmax is 890.3 ± 551.3 (61.9) ng/ml.

**Q.** And the Tmax ([9]; po, 8 mg/kg)?
**A.** Its Tmax is 120.00 [48.00–336.00] h.

**Q.** And the “Tmax, oral doses (fed and fasted), median” value ([9]; po, 8 mg/kg)?
**A.** Its value is 120 to 144 h.

**Q.** And the t1/2 ([9]; po, 8 mg/kg)?
**A.** The t1/2 was 353.9 [255–491] h.

**Q.** And the “accumulation ratio between weeks 13 and 31, range of dogs” value [10]?
**A.** Its value is 0.56-1.49.

**Q.** What about the “accumulation ratio week 31 vs week 13” value [10] of the same compound?
**A.** Its value is “around 1.3”.

**Q.** What about the “correlation coefficient, adjusted PK parameters (Cmax, AUC168) vs dose level” value [10] of the same compound?
**A.** The value was greater than 0.9.

**Q.** And the “inhibition of COX‐2 enzymatic activity” value (COX‐2)?
**A.** The value was “potent inhibitors”.
